From patent publication US5811558A, “Process for the resolution of etodolac using glucamine derivatives” (priority 1994, dated 1998)
Where a name gives a salt, the structure may show the parent alone.

What was measured:
[1] = open randomised two way crossover pharmacokinetic study in healthy male volunteers, single oral dose; type: in vivo, human (healthy male volunteers); details: for half-life: t1/2
Description: (§1) An open randomised two way crossover study was conducted on a group of 13 healthy male volunteers to investigate the pharmacokinetics of the meglumine salt of (S)-etodolac and racemic etodolac (Lodine®); 11 volunteers received both treatments. Doses used were […] of the meglumine salt (equivalent to 100 mg of the free acid) and 200 mg of racemic etodolac. Blood samples were taken regularly.
The results of the pharmacokinetic study are shown in Table 1 and in FIGS. 1 and 2 below.
FIG. 1 is a graph of plasma concentration (μg/ml) of the (S)enantiomer for all volunteers receiving a single oral dose of 200 mg of racemic etodolac.
FIG. 2 is a graph of plasma concentration (μ/ml) of the (S) enantiomer for all volunteers receiving a single oral dose of 168 mg of the meglumine salt of (S)-etodolac (100 mg free acid equivalent).

[2] = set-up: species or system human (healthy male volunteers); details: human, in vivo
Description: as §1
Etodolac had no affect on vital signs, ECGs, physical examinations or on any clinical laboratory assessments, including serum biochemistry, haematology and urinalysis, when administered in either form.

[3] = free acid, Lee et al, J. Pharm. Sci. (1988); cited from earlier work

| SMILES | t1/2 comparison in words ([1]; human, in vivo) | half-life ([1]; human, in vivo, po) [h] | tmax ([1]; human, in vivo, po, tmax) [h] | effect on vital signs, ECGs, physical examinations or clinical laboratory assessments (serum biochemistry, haematology, urinalysis) [2] | stability on heating under acidic conditions [3] | plasma concentrations of (R)-etodolac relative to (S)-etodolac ([1]; human, in vivo, po) | tmax ([1]; human, in vivo, po) [h] | peak plasma concentrations in words ([1]; human, in vivo) | appearance in plasma in words ([1]; meglumine salt dosed orally) |
| --- | --- | --- | --- | --- | --- | --- | --- | --- | --- |
| CCc1cccc2c3c([nH]c12)C(CC)(CC(=O)O)OCC3 (racemic) [racemic etodolac] | substantially eguivalent | 7.14 | 1.67 | no affect | leads to its decomposition | – | – | – | – |
| CCc1cccc2c3c([nH]c12)[C@@](CC)(CC(=O)O)OCC3 [(R)-etodolac] | substantially eguivalent | ~7 | 1.73 | – | – | about 10 times higher | – | – | – |
| CCc1cccc2c3c([nH]c12)[C@](CC)(CC(=O)O)OCC3 [(S)-etodolac] | markedly lower | ~2 | – | – | – | – | 1.23 | – | – |
| CCc1cccc2c3c([nH]c12)[C@](CC)(CC(=O)O)OCC3 [Meglumine salt of (S)-etodolac] | – | – | – | – | – | – | 0.333 | significantly higher | appears in the plasma very rapidly |
